Test results: patent US20240083943A1, “VEGF-REGULATING PEPTIDES” (IDP DISCOVERY PHARMA, S.L., priority 2020, published 2024)
Positions of bridges follow the written chain, without caps; N, C: chain ends. Non-standard residues stand in square brackets, D forms with d. No end group written: not given here. formula (I), R19:CH3 = not defined here; formula (I) = not defined here

How the values were obtained:
[1] = system: VEGF protein in ARPE-19 human retinal pigment epithelia cells; assay: VEGF ELISA of culture supernatant, CoCl2-induced hypoxia vs normoxia, ARPE-19 cells; type: cell-based; settings: for Relative VEGF (Hipoxia/Normoxia) / Relative VEGF (Hypoxia/Normoxia): peptide 20 μM; for Relative VEGF (Hipoxia/Normoxia): Table 3, untreated ratio 1.87; for Effect on VEGF expression under hypoxia conditions (in words): compared with untreated cells; for Relative VEGF (Hypoxia/Normoxia): 24 hr, 300 μM CoCl2, Table 2, untreated ratio 2.02
Method: (§1) MDA-MB-231 human breast cancer cell lines, HaCat immortalized human keratinocyte cell line and ARPE-19 human retinal pigment epithelia (RPE) cell line were purchased from American Type Culture Collection (ATCC, Manassas, VA, USA). Human cells were routinely authenticated using genotype profiling according to the ATCC guidelines. ARPE-19 cells were maintained in DMEM/F12 medium with HEPES supplemented with 10% fetal calf serum and antibiotics.
(§2) A fresh stock solution 0.4 M CoCl2 was prepared in water and added to the medium to obtain the concentration of 50 μM for MDA-MB-231, 200 μM for HaCaT and 300 μM for ARPE-19 cells. Cells were incubated with respective CoCl2 concentration for 24 hr to mimic hypoxic conditions.
The VEGF-content of the supernatant of culture cells was measured by a VEGF-ELISA (Abcam; ab100662; Cambridge, UK) following the manufacturer's instructions. The range of detection of the ELISA was between 8.23 pg/ml and 6,000 pg/ml. […] The same procedure was used in the presence of the peptides of the invention.
(§3) RT-PCR experiments were repeated at least 2 times. For VEGF assays, the mean±S.D of 3 determinations carried out in triplicate were calculated. Statistical significance was determined using Mann-Whitney tests for comparisons of means in a SPPS statistical software for Microsoft Windows, release 6.0 (Professional Statistic, Chicago, IL, USA). Individual comparisons were made using Student's two-tailed, unpaired t-tests. Criterion for significance was P<0.05 for all comparisons.
The objective of this study was to determine the regulation of VEGF by the peptides in hypoxia induced conditions in ARPE-19 cell lines. The VEGF protein (using ELISA kit) was calculated in untreated cells in hypoxia vs. normoxia and a threshold of activity was set. Then, cells were treated with a solution of the corresponding peptide of the invention at 20 μM dissolved in cell culture medium alone (normoxia condition) or in the presence of CoCl2 (hypoxia conditions) and the ratio of VEGF protein amount was calculated. The peptides showing a VEGFhyp/VEGFnorm ratio higher than the ratio in untreated cells were considered as inducers of VEGF protein, while peptides providing a VEGFhyp/VEGFnorm ratio lower than the ratio in untreated cells were considered as reducers of VEGF protein, as reported in table 2.

[2] = system: VEGF protein in HaCat immortalized human keratinocyte cells; assay: VEGF ELISA of culture supernatant, CoCl2-induced hypoxia vs normoxia, HaCat cells; type: cell-based; settings: peptide 10 μM, untreated ratio 1.15
Text: as §1
(§4) MDA-MB-231 and HaCaT were maintained in DMEM medium with glucose 4.5gr/L, glutamine and pyruvate 2 mM and supplemented with 10% fetal calf serum and antibiotics.
as §2
(§5) The VEGF-content of the supernatant of culture cells was measured by a VEGF-ELISA (Abcam; ab100662; Cambridge, UK) following the manufacturer's instructions. […]
as §3, with “Individual comparisons were made using Student's two-tailed, unpaired t-tests. Criterion for significance was P<0.05 for all comparisons.” left out

[3] = system: VEGF protein in MDA-MB-231 human breast cancer cells; assay: VEGF ELISA of culture supernatant, CoCl2-induced hypoxia vs normoxia, MDA-MB-231 cells; type: cell-based; settings: peptide 10 μM, untreated ratio 1.72
Text: as §1, §4, §2, §5
as §3, with “Individual comparisons were made using Student's two-tailed, unpaired t-tests. Criterion for significance was P<0.05 for all comparisons.” left out

[4] = system: VEGF mRNA in ARPE-19 cells; assay: Real time quantitative RT-PCR of VEGF mRNA in ARPE-19 cells; type: cell-based, human; settings: for VEGF mRNA level compared to untreated cells (in words): ARPE-19, 10 μM; for Relative Copy to Control / VEGF mRNA Copy/Copy million of Actine: ARPE-19, peptide 10 μM, 24 hr; for Relative Copy to Control: control = untreated normoxia (1)
Method: as §2
Extraction of RNA from indicated cells was performed using the NZY total RNA isolation kit (Nzytech, Lisboa, Portugal) and cDNA prepared using the NZY First-Strand cDNA Synthesis Kit (Nzytech). Primers were designed using Primer Blast software (NCBI) and obtained from Thermo-Fisher. mRNA expression levels were evaluated by qRT-PCR (QuantStudio 5 Real-Time PCR System, Applied Biosystems, Foster City, CA, USA) using SYBR green master mix (Applied Biosystems) and normalized to […]. The following primers were used in this study: β-Actin (forward: 5″-AGAAAATCTGGCACCACACC-3″ (SEQ ID NO: 32); reverse: 5″-GGGGTGTTGAAGGTCTCAAA-3″ (SEQ ID NO: 33)); VGFA (forward: 5″-TACTGCCATCCAATCGAGAC-3″ (SEQ ID NO: 34); reverse: 5″-GCA TGG TGA TGT TGG ACT-3″ (SEQ ID NO: 35)).
as §3
The VEGF expression regulation was also determined by […] in ARPE-19 cells treated with the peptide SEQ ID NO: 17 at 10 μM for 24 hr in normoxia and hypoxia conditions.

[5] = system: CD31 staining (blood vessels) in MDA-MB-231 tumours; assay: Angiogenesis reduction in vivo: CD31 immunohistochemistry of MDA-MB-231 breast tumour xenografts; settings: MDA-MB-231 xenograft in athymic mice, s.c. 2x week, vs vehicle
Method: MDA-MB-231 cells were inoculated (2.5×10^6 cells/animal) in 100 μl of DMEM into the mammary fat pad of athymic mice. When tumours reached a volume of 100 mm3, animals were divided in groups and treated 2× week by s.c. administration with vehicle (2% Tween-20 in 0.9% NaCl sterile, control group) and 2× week by s.c. administration with SEQ ID NO:17 (treated group). At sacrifice, tumours were collected, weighed and formalin-fixed (24 h). Formalin-fixed tumours were processed for paraffin-embedded tissue blocks, which were sent for analysis to the Dept. Bioquimica y Biologic Molecular A, Facultad de Veterinaria, Universidad de Murcia.
Hematoxylin, eosin, diaminobenzidine tetrahydrochloride and hydrogen peroxide were obtained from Merck (Madrid, Spain). The antibody mouse monoclonal anti-CD31 was obtained from Novus.
Tumours washed in PBS, fixed in 10% formalin and embedded in paraffin.
Haematoxylin and eosin (H&E) staining was performed on serial sections of paraffin embedded tissues. For immunohistochemistry, paraffin sections were deparaffinized and subjected to antigen retrieval in sodium citrate buffer (pH 6.0). Tissue endogenous peroxidase was inactivated with 5% hydrogen peroxide. Slides were blocked and incubated with primary antibodies overnight at 4 C. […] The stained slides were scanned using a SCN400F Leica scanner and images were analysed using ImageJ software.

KASVMRLTISYLRV [SEQ ID NO: 37, 14 amino acid lineal peptide]
Relative VEGF (Hipoxia/Normoxia) [1]: 2.02

KASVMRLTISYLRVR [SEQ ID NO: 36, 15 amino acid lineal peptide disclosed in WO2006038208(A2), reference compound]
Effect on VEGF expression under hypoxia conditions (in words) [1]: no effect in the modulation of VEGF expression | Relative VEGF (Hipoxia/Normoxia) [1]: 1.89

LDKASVMRLTISYLRVRK [SEQ ID NO: 13, lineal peptide, 18 amino acids]
Effect on VEGF expression under hypoxia conditions (in words) [1]: increase VEGF expression under hypoxia conditions | Relative VEGF (Hypoxia/Normoxia) [1]: 2.59

SEQ ID NO: 14: cross-linked (stapled) peptide derived from SEQ ID NO: 1 (KA[formula (I), R19:CH3]VMRLTI[formula (I), R19:CH3]YLRVR-NH2; staple 3-10; reading uncertain; also: staple: ‑(CH2)6‑CH:CH‑(CH2)3‑)
Relative VEGF (Hypoxia/Normoxia) [1]: 1.41

SEQ ID NO: 16: cross-linked (stapled) peptide derived from SEQ ID NO: 1 (KASVM[formula (I), R19:CH3]LTISYL[formula (I), R19:CH3]VR-NH2; staple 6-13; reading uncertain; also: staple: ‑(CH2)6‑CH:CH‑(CH2)3‑)
Relative VEGF (Hypoxia/Normoxia) [1]: 1.01 | Relative VEGF (Hypoxia/Normoxia) [2]: 0.88 | Relative VEGF (Hypoxia/Normoxia) [3]: 1.30

SEQ ID NO: 17: cross-linked (stapled) peptide; differs from SEQ ID NO: 16 only in the C-terminal end (KASVM[formula (I), R19:CH3]LTISYL[formula (I), R19:CH3]VR-OH; staple 6-13; reading uncertain; also: staple: ‑(CH2)6‑CH:CH‑(CH2)3‑)
Relative VEGF (Hypoxia/Normoxia) [1]: 1.02 | VEGF mRNA level compared to untreated cells (in words) ([4]; hypoxia): reduced significantly the mRNA level | VEGF mRNA level compared to untreated cells (in words) ([4]; normoxia): just a slide reduction | Relative Copy to Control ([4]; hypoxia, untreated hypoxia 4.50): 0.76 | VEGF mRNA Copy/Copy million of Actine ([4]; hypoxia, untreated hypoxia 152782): 25873 Copy/Copy million of Actine | Relative Copy to Control ([4]; normoxia): 0.93 | VEGF mRNA Copy/Copy million of Actine ([4]; normoxia, untreated normoxia 33918): 31454 Copy/Copy million of Actine | CD31 expression in treated tumours compared with the control (immunohistochemistry) [5]: statistically significant decrease of CD31 expression

SEQ ID NO: 19: cross-linked (stapled) peptide derived from SEQ ID NO: 1 (LDKA[formula (I), R19:CH3]VMRLTI[formula (I), R19:CH3]YLRVRK-NH2; staple 5-12; reading uncertain; also: staple: ‑(CH2)6‑CH:CH‑(CH2)3‑)
Relative VEGF (Hypoxia/Normoxia) [1]: 1.39

SEQ ID NO: 20: cross-linked (stapled) peptide derived from SEQ ID NO: 1 (LDKASV[formula (I), R19:CH3]RLTISY[formula (I), R19:CH3]RVRK-NH2; staple 7-14; reading uncertain; also: staple: ‑(CH2)6‑CH:CH‑(CH2)3‑)
Relative VEGF (Hypoxia/Normoxia) [1]: 0.99

SEQ ID NO: 21: cross-linked (stapled) peptide derived from SEQ ID NO: 1 (LDKASVM[formula (I), R19:CH3]LTISYL[formula (I), R19:CH3]VRK-NH2; staple 8-15; reading uncertain; also: staple: ‑(CH2)6‑CH:CH‑(CH2)3‑)
Relative VEGF (Hypoxia/Normoxia) [1]: 1.36

SEQ ID NO: 29: peptide of the second aspect with linker biradical, derived from SEQ ID NO: 22 (RSRRSKE[formula (I), R19:CH3]EVFYEL[formula (I), R19:CH3]HQ-NH2; staple 8-15; reading uncertain; also: staple: ‑(CH2)6‑CH:CH‑(CH2)3‑)
Relative VEGF (Hypoxia/Normoxia) [1]: 2.60

SEQ ID NO: 30: peptide of the second aspect with linker biradical, derived from SEQ ID NO: 22 (RSRRSKESE[formula (I)]FYELAH[formula (I)]-NH2; staple 10-17; reading uncertain; also: staple: ‑(CH2)6‑CH:CH‑(CH2)3‑)
Relative VEGF (Hypoxia/Normoxia) [1]: 2.70

SEQ ID NO: 31: peptide of the second aspect with linker biradical, derived from SEQ ID NO: 22 (RS[formula (I)]RSKESE[formula (I)]FYELAHQLP-NH2; staple 3-10; reading uncertain; also: staple: ‑(CH2)6‑CH:CH‑(CH2)3‑)
Relative VEGF (Hypoxia/Normoxia) [1]: 2.64
